Laboratory results as given in ChEMBL document CHEMBL3507680, “University of Dundee, Gates Library screen for HepG2 cell viability”.

assay: Human HepG2 cell viability assay in 384 well format; assay type: toxicity, cell-based; parameters: dose 125 nL, time 70.5 hour; cytotoxicity at 70.5 h: concentration not given beside the values; conditions: HepG2 cells, read-out: Inhibition

| Compound | cytotoxicity at 70.5 h [%] |
| --- | --- |
| Cc1cc(-c2cnc(NC3CC3)nc2-c2ccc(C)o2)on1 | -9.8 |
| c1c[nH]c2nc(C3CCCNC3)nc-2c1 (centres undefined) | -13.7 |
| Cc1n[nH]c(C)c1C1COCCN1C(=O)c1cc(Cl)c[nH]1 (centres undefined) | -5.39 |
| CCOCc1ncn2c1CN(S(=O)(=O)c1cccs1)CC2 | -0.803 |
| COc1cc(S(=O)(=O)N2CCc3cc(Br)ccc32)cc(C(=O)O)c1OC | -0.737 |
| COCCC(=O)N(Cc1cccnc1)CC1CCN(C2CCCC2)CC1 | 3.05 |
| Cc1nc2ccccn2c1CN1C[C@@H](CN(C)C)[C@@H](CO)C1 | -6.27 |
| Cn1cc(C2CCCN2C(=O)Cc2n[nH]c3ccccc23)cn1 (centres undefined) | 40.1 |
| COCc1nc2cc(NCc3ccc(CO)o3)ccc2o1 | 14.6 |
| NCc1cnc(Nc2ccccc2)nc1 | -17.3 |
| CC(NC(=O)NCCCN(C)S(C)(=O)=O)c1cccc(Cl)c1 (centres undefined) | -7.23 |
| O=C(NCCc1nc(-c2ccccn2)no1)c1ccc(C2CCCO2)s1 (centres undefined) | -5.15 |
| O=C(Nc1ccc2c(c1)OCO2)N1CCN(CCn2ccnc2)CC1 | -6.54 |
| O=C(NCCc1cccs1)N1CCC[C@H]1CO | -6.62 |
| c1cc(-c2c[nH]c([C@@H]3COCCN3CC3CC3)n2)ccn1 | -1.9 |
| Cn1c(CO[C@H]2CN(S(C)(=O)=O)C[C@H]2F)nc2ccccc21 | -1.31 |
| Cc1noc(CNc2ccc(C(=O)N3CCCC(C)C3)cc2C)n1 (centres undefined) | -6.32 |
| c1cnc(CC2CCN(c3cnccn3)CC2)cn1 | -7.05 |
| O=C(CCN1CCCC1c1ccccn1)N1CCc2ccccc2C1 (centres undefined) | -16.1 |
| COc1ccc(CN2CCC3(CC2)CCN(CC2CC2)C3=O)cc1 | -14.4 |
| Cc1cc(CN(C)C(=O)NCC(C)N2CCc3ccccc32)no1 (centres undefined) | -2.66 |
| CC(C)N(CCNCc1ccc(C#N)cc1)C1CC1 | 17.7 |
| CN(C)C(c1ccccn1)[C@H]1CC[C@H](CNC(=O)CC2CCCC2)CC1 (some centres undefined) | -7.26 |

| Compound | cytotoxicity at 70.5 h [%] |
| --- | --- |
| CCc1nc(C)c(CNC(=O)CCCN2CCCCC2)s1 | -1.08 |
| OC(CN1CCN(CC2CCCCC2)CC1)c1ccccc1 (centres undefined) | -8.48 |
| Cc1ccnc(N2CCC(C(N)=O)CC2)n1 | 32.9 |
| O=C(NCC1CCOCC1)[C@@H]1C[C@@H]2[C@@H](CCN2Cc2nccs2)O1 | -12.1 |
| Cc1cc(C)nc(NCCSc2cnn[nH]2)n1 | -2 |
| CCc1nc(-c2noc3ccc(C(=O)NCCN(C)C)cc23)co1 | -4.76 |
| O=C(CCC1CCCN(C(=O)CCN2CCCCO2)C1)N1CCCC1 (centres undefined) | -5.73 |
| CCn1cc(C(=O)NCc2cccnc2N(C)Cc2ccccc2)cn1 | 2.58 |
| O=C(CCc1ccncc1)N1CCc2c(ncnc2N2CCOCC2)C1 | 31.1 |
| COCC(C)NC(=O)c1cc(C)n(-c2cccc(OC)c2)c1C (centres undefined) | -5.2 |
| CC(C)Cc1nc(CN2CC(=O)N(C)c3ccccc3C2=O)no1 | 2.18 |
| Cc1noc(C)c1CNC(=O)N(C1CC1)C(C)c1ccco1 (centres undefined) | -3.98 |
| O=C(Nc1cccnc1)[C@@H]1C[C@H]2OCC[C@H]2N(Cc2nccs2)C1 | -6.06 |
| Cn1nnnc1SCCNC(=O)CC1CCc2ccccc21 (centres undefined) | -1.31 |
| CCOC(C)C(=O)NCCNS(C)(=O)=O (centres undefined) | -6.01 |
| CC(NC(=O)N1CCN(c2ccccc2O)CC1)c1nncn1C (centres undefined) | 1.59 |
| Cn1nnnc1SCCNC(=O)C1CCN(C(=O)C2CCC2)CC1 | -5.55 |
| O=C([C@H]1C[C@H]2OCC[C@H]2N(C(=O)C2CCOCC2)C1)N1CCCCO1 | -2.55 |
| O=C(NC1CCN(c2ccc(-c3ccccc3F)nn2)C1)c1ccc[nH]1 (centres undefined) | 10.6 |
| CN(C)Cc1nc(C(C)(C)NC(=O)c2cccc3ccccc23)no1 | -7.53 |
| CC(=O)Cc1c(C)nn(-c2cncc(C(N)=O)c2)c1C | -9.56 |
| O=C(c1cncc(N2CC[C@@]3(O)CCNC[C@H]3C2)n1)N1CCCC1 | -3.92 |
| N#Cc1ccc(S(=O)(=O)NC(=O)c2ccc3c(c2)COC3)cc1 | -4.81 |

| Compound | cytotoxicity at 70.5 h [%] |
| --- | --- |
| COc1c(C)cnc(CN(C)C(=O)c2ccccn2)c1C | 15.4 |
| CS(=O)(=O)c1cccc(OCC(=O)N2CCCC2c2ccc[nH]2)c1 (centres undefined) | -7.78 |
| CCc1nc(C2CCCN(C(=O)CN(C)S(C)(=O)=O)C2)no1 (centres undefined) | 3.45 |
| CN1CC(=O)N(c2ccccc2)Cc2c(NC3CC3)ncnc21 | 0.416 |
| COc1ccc(CCN2CC(n3nc(C)cc3C)C2)cc1 | -16.5 |
| CCc1nnc2n1CCN(Cc1ccc(C(=O)N3CCCC3)cc1)C2 | -25.8 |
| Nc1cc(N2CCCC2c2cnccn2)ncn1 (centres undefined) | -7.75 |
| Cc1ccc2cc(CN(C)Cc3ncc[nH]3)c(=O)[nH]c2c1 | 26.6 |
| c1cc(CN2CCCCC2)cc(NCc2cc[nH]n2)c1 | 7.51 |
| Cc1cnn(CC2CCCCN2Cc2nc(C)c3ccccc3n2)c1 (centres undefined) | -1.81 |
| CCOc1ccccc1-c1noc(CN2CC(n3cccn3)C2)n1 | -14.4 |
| O=C(NCCn1cnc(C2CCCC2)cc1=O)c1ccc(=O)[nH]n1 | -0.636 |
| Brc1cnc(NCCCOC2CCOCC2)nc1 | -6.88 |
| CN(c1ncccc1C#N)C1CCN(Cc2ccncc2)CC1 | -3.31 |
| Cc1nn(C)c(Oc2ccc(Cl)cc2)c1CN1CCOC(CN)C1 (centres undefined) | -2.25 |
| Cc1cc(C(=O)NCC(C)N2CCc3ccccc32)on1 (centres undefined) | 7.49 |
| CCn1ncc2c1NC(=O)CC2c1cnc(-c2ccccn2)nc1 (centres undefined) | -2.85 |
| CCn1nc(C)c2ccn(CC(=O)NCC3CCCO3)c(=O)c21 (centres undefined) | -5.94 |
| CC(C)(C)c1n[nH]c(C2CN(C(=O)c3cc(Cl)c[nH]3)CCO2)n1 (centres undefined) | -10.3 |
| O=C(c1ccc2c(c1)CCO2)N1CCN(c2cnccn2)CC1 | -5.33 |
| c1ccc(OCCNCc2cccs2)nc1 | 7.79 |
| Cc1cc(C[C@@H]2COC[C@H]2NCc2ccc(Br)s2)on1 | 22.3 |
| CC(C)Cc1nnc2sc(-c3cc(C(C)C)n[nH]3)nn12 | 12.3 |

| Compound | cytotoxicity at 70.5 h [%] |
| --- | --- |
| COc1cc(NCc2c(C)noc2C)c(C(=O)N(C)C)cc1OC | -8.14 |
| O=C1[C@H]2CC[C@H](CN(S(=O)(=O)c3ccccc3)C2)N1Cc1cscn1 | 8.27 |
| Cc1cccc(CN2C[C@@H](CN3CCCN(C)CC3)[C@@H](CO)C2)n1 | 26.4 |
| O=C(NC[C@]12COC[C@H]1CN(Cc1nccs1)C2)c1cscn1 | -3.54 |
| O=C(CNC(=O)c1ccoc1)NC(c1ccc(F)cc1)C(F)(F)F (centres undefined) | -3.8 |
| COc1ccc(CN2C[C@@H]3CC[C@H](C2)N(Cc2snnc2C)C3)cc1 | 49 |
| CCn1cnnc1C1CCN(C(=O)c2cc3c(s2)CCOC3)CC1 | -9.84 |
| Cc1csc(C(Cc2ccsc2)NC(=O)c2cc(=O)n(C)c(=O)n2C)n1 (centres undefined) | -4.94 |
| Cn1cc(C(=O)N2CCCCC2CCc2ccc(O)cc2)cn1 (centres undefined) | -10.3 |
| CNC(=O)c1cn[nH]c1C1CCN(Cc2ccccc2F)C1 (centres undefined) | -3.84 |
| Cn1c(=O)ccn(CC(=O)Nc2cnccc2O)c1=O | -4.1 |
| CCn1nc(C)c(CNC(=O)c2nnc3ccccc3n2)c1C | 0.73 |
| COc1ccc(F)cc1C(=O)N1CCC2(CCC(=O)N(C(C)C)C2)CC1 | -5.66 |
| CC(C)N1CCC(N(C)c2ccnc(N(C)C)n2)CC1 | -2.26 |
| CCc1nc(CSc2nnc(N)n2C2CC2)no1 | -7.26 |
| CN1CCCN(S(=O)(=O)c2cn(C)cn2)c2cc(Cl)ccc21 | -0.299 |
| CCC(C(=O)NC1(COC)CCCC1)n1cccn1 (centres undefined) | 5.08 |
| CN(Cc1cc2n(n1)CCNC2)Cc1n[nH]c2c1CCCCC2 | -1.36 |
| COc1ccc(NC(=O)c2cnc(C3CCN(C)CC3)nc2C)cc1 | -2.26 |
| O=C(NC1CCN(c2cccc(OC(F)(F)F)c2)C1=O)C1CC1 (centres undefined) | 0.481 |
| O=C(O)C1CN(c2cncc(Cc3ccccc3F)n2)C1 | -6.79 |
| CCC[C@@H]1CN(C(=O)c2conc2-c2ccccc2)C[C@H]1N(C)C | 0.694 |
| CN1CCC(N2CCC(C(=O)N(C)C)CC2)CC1 | -0.525 |

| Compound | cytotoxicity at 70.5 h [%] |
| --- | --- |
| CCC(=O)Nc1ccc2c(ccn2CCOC)c1 | -8.06 |
| Cc1nc(C)n(CC2CCCCN2Cc2ncc(C(C)(C)C)o2)n1 (centres undefined) | 8 |
| O=C(CCc1ccccc1Br)N1CC(S(=O)(=O)C2CCCCC2)C1 | -5.63 |
| N#Cc1ccc(NCc2cccnc2N2CCC(C(N)=O)CC2)cn1 | -7.33 |
| N#Cc1cccc(NC(=O)C2CCCN2c2nccs2)c1 (centres undefined) | -2.24 |
| CCc1noc(C)c1C(=O)N(C)Cc1ncc(C)c(OC)c1C | -30.2 |
| c1csc(-c2cc(CN3CCN(c4nccs4)CC3)no2)c1 | -10.2 |
| Cc1ccc(C)c(OCC(O)CN(C)CC(=O)Nc2cc(C)on2)c1 (centres undefined) | 3.48 |
| O=C(NCc1ccc(-n2cncn2)nc1)N(CC1CCOC1)C1CC1 (centres undefined) | -5.41 |
| CC(C)[C@@H]1CN(Cc2ccccc2C#N)C[C@H]1NC(=O)N(C)C | -1.2 |
| Cc1ncsc1CN1C[C@@H](OCc2ccncc2)[C@H]2OCCC[C@H]21 | 3.55 |
| Cc1nn(C)c(N(C)C)c1CNCc1cccnc1N1CCOCC1 | -8.33 |
| Cc1cc(C)n(C2CCCN(C(=O)Cc3cccc(F)c3)C2)n1 (centres undefined) | -9.48 |
| Cc1cc(N(C)C)nc(N2CCCC2c2ccccn2)n1 (centres undefined) | -3.12 |
| Cc1cnc(CN(C)C2CCN(Cc3nc4ccccc4s3)C2)o1 (centres undefined) | 51.7 |
| c1cc(CCN2CCN(c3ccc4nncn4n3)CC2)ccn1 | -11.9 |
| CCCc1cc(NC2CCc3ncnn3C2)n2ncnc2n1 (centres undefined) | 0.783 |
| CN(C)c1cc(C(=O)Nc2cccnc2N2CCSCC2)ccn1 | -9.49 |
| CCN1CC(COC(=O)c2ccc(N(C)C)cc2F)CC1=O (centres undefined) | -3.33 |
| CN(C)CCNC(=O)c1sccc1N(C)S(=O)(=O)c1ccc(Cl)cc1 | -17.4 |
| Cn1nc(CNC(=O)C2CCN(S(C)(=O)=O)CC2)cc1C1CC1 | -3.55 |
| Cc1noc(CN2CCN(C(=O)N(C)C)CC2)n1 | -11 |
